Assay results taken from BigSolDB 2.1.

CC(=O)S[C@@H]1CC2=CC(=O)CC[C@]2(C)[C@H]2CC[C@@]3(C)[C@@H](CC[C@@]34CCC(=O)O4)[C@H]12
Conditions	solubility (mole fraction)
in ethanol, 278.75 K	0.0017
in ethanol, 283.55 K	0.00197
in ethanol, 288.45 K	0.00238
in ethanol, 293.45 K	0.0031
in ethanol, 298.35 K	0.00394
in ethanol, 303.15 K	0.00491
in ethanol, 308.25 K	0.00606
in ethanol, 313.15 K	0.00771
in ethanol, 317.95 K	0.00975
in ethyl acetate, 278.85 K	0.0179
in ethyl acetate, 283.65 K	0.0198
in ethyl acetate, 288.55 K	0.0226
in ethyl acetate, 293.45 K	0.0246
in ethyl acetate, 298.3 K	0.0281
in ethyl acetate, 303.15 K	0.0314
in ethyl acetate, 308.1 K	0.0359
in ethyl acetate, 312.95 K	0.0412
in ethyl acetate, 317.75 K	0.0456
in isopropanol, 278.45 K	0.000994
in isopropanol, 283.55 K	0.00128
in isopropanol, 288.4 K	0.00168
in isopropanol, 293.25 K	0.00208
in isopropanol, 298.2 K	0.00265
in isopropanol, 303.05 K	0.00343
in isopropanol, 307.95 K	0.00445
in isopropanol, 312.9 K	0.00572
in isopropanol, 317.55 K	0.00731
in methanol, 278.85 K	0.000202
in methanol, 283.65 K	0.000267
in methanol, 288.55 K	0.000356
in methanol, 293.45 K	0.00041
in methanol, 298.3 K	0.000612
in methanol, 303.15 K	0.000813
in methanol, 308.1 K	0.00104
in methanol, 312.95 K	0.00139
in methanol, 317.75 K	0.00182
in n-butanol, 278.95 K	0.00194
in n-butanol, 283.65 K	0.00237
in n-butanol, 288.55 K	0.00309
in n-butanol, 293.45 K	0.00396
in n-butanol, 298.25 K	0.00469
in n-butanol, 303.05 K	0.00581
in n-butanol, 308.15 K	0.00732
in n-butanol, 312.95 K	0.00898
in n-butanol, 317.65 K	0.011
in n-propanol, 278.4 K	0.00228
in n-propanol, 283.65 K	0.0026
in n-propanol, 288.35 K	0.00326
in n-propanol, 293.25 K	0.00395
in n-propanol, 298.15 K	0.00488
in n-propanol, 303.05 K	0.00606
in n-propanol, 307.95 K	0.00756
in n-propanol, 312.9 K	0.00957
in n-propanol, 318.35 K	0.0121
